Test results from patent US12630553B2 (Ascentage Pharma (Suzhou) Co., Ltd., priority 2020, dated 2026).
Where a name gives a salt, the structure may show the parent alone.

Experiments:
[1] = Stability test of salts of compound 1 (HPLC, XRD); format: physicochemical
Method: 30 mg of the compound was weighed and added into an 8 mL glass bottle, and then was placed under the condition of room temperature (25° C., closed), high humidity (room temperature/75% RH, open) and light (25° C. closed, white light: 5000 Lux, ultraviolet 282 μW/cm2). samples were taken on the 5th, 10th, and 30th day for detection (HPLC, XRD).

[2] = Dynamic water adsorption (DVS) test of compound 1 solid forms; format: physicochemical; details: about 10 mg solid form
Method: About 10 mg of the solid form of the compound 1 was taken for dynamic water adsorption (DVS) test.

[3] = Illumination 5K lux closed, day 5
[4] = Illumination 5K lux closed, day 10

| SMILES | TRS (%) ([1]; 25° C. closed, day 5) | XPRD ([1]; 25° C. closed, day 5) | TRS (%) ([1]; 25° C. closed, day 10) | XPRD ([1]; 25° C. closed, day 10) | TRS (%) ([1]; 25° C. closed, day 30) | XPRD ([1]; 25° C. closed, day 30) | TRS (%) ([1]; 25° C./75% RH open, day 5) | XPRD ([1]; 25° C./75% RH open, day 5) | TRS (%) ([1]; 25° C./75% RH open, day 10) | XPRD ([1]; 25° C./75% RH open, day 10) | TRS (%) ([1]; 25° C./75% RH open, day 30) | XPRD ([1]; 25° C./75% RH open, day 30) | TRS (%) [1, 3] | XPRD [1, 3] | TRS (%) [1, 4] | XPRD [1, 4] | TRS (%) ([1]; Initial sample, day 0) | XPRD ([1]; Initial sample, day 0) | XRPD after DVS [2] |
| --- | --- | --- | --- | --- | --- | --- | --- | --- | --- | --- | --- | --- | --- | --- | --- | --- | --- | --- | --- |
| CN[C@@H](C)C(=O)N[C@H]1CN(S(=O)(=O)c2cccc(S(=O)(=O)N3CC[C@H]4CC[C@@H](C(=O)NC(c5ccccc5)c5ccccc5)N4C(=O)[C@@H](NC(=O)[C@H](C)NC)C3)c2)CC[C@H]2CCC(C(=O)NC(c3ccccc3)c3ccccc3)N2C1=O (stereo partly drawn) [Compound 1 di-p-toluenesulfonate amorphous Form XVI] | 1.66% | Amorphous | 1.71% | Amorphous | 1.80% | Amorphous | 1.56% | Amorphous | 1.66% | Amorphous | 1.88% | Amorphous | 1.89% | Amorphous | 2.40% | Amorphous | 1.66% | Amorphous | – |
| CN[C@@H](C)C(=O)N[C@H]1CN(S(=O)(=O)c2cccc(S(=O)(=O)N3CC[C@H]4CC[C@@H](C(=O)NC(c5ccccc5)c5ccccc5)N4C(=O)[C@@H](NC(=O)[C@H](C)NC)C3)c2)CC[C@H]2CCC(C(=O)NC(c3ccccc3)c3ccccc3)N2C1=O (stereo partly drawn) [Compound 1 dimethanesulfonate crystalline Form XVIII] | 2.51% | Crystalline Form | 2.57% | Crystalline | 2.55% | Crystalline | – | – | – | – | – | – | 2.63% | Crystalline | 2.64% | Crystalline | 2.44% | Crystalline | No change |
| CN[C@@H](C)C(=O)N[C@H]1CN(S(=O)(=O)c2cccc(S(=O)(=O)N3CC[C@H]4CC[C@@H](C(=O)NC(c5ccccc5)c5ccccc5)N4C(=O)[C@@H](NC(=O)[C@H](C)NC)C3)c2)CC[C@H]2CCC(C(=O)NC(c3ccccc3)c3ccccc3)N2C1=O (stereo partly drawn) [XIV] | – | – | – | – | – | – | – | – | – | – | – | – | – | – | – | – | – | – | No change |
| CN[C@@H](C)C(=O)N[C@H]1CN(S(=O)(=O)c2cccc(S(=O)(=O)N3CC[C@H]4CC[C@@H](C(=O)NC(c5ccccc5)c5ccccc5)N4C(=O)[C@@H](NC(=O)[C@H](C)NC)C3)c2)CC[C@H]2CCC(C(=O)NC(c3ccccc3)c3ccccc3)N2C1=O (stereo partly drawn) [compound 1 dihydrochloride amorphous form V] | 0.72% | Amorphous | 0.77% | Amorphous | 0.83% | Amorphous | 0.81% | Amorphous | 0.77% | Amorphous | 0.79% | Amorphous | 1.81% | Amorphous | 2.54% | Amorphous | 0.73% | Amorphous | No change |
| CN[C@@H](C)C(=O)N[C@H]1CN(S(=O)(=O)c2cccc(S(=O)(=O)N3CC[C@H]4CC[C@@H](C(=O)NC(c5ccccc5)c5ccccc5)N4C(=O)[C@@H](NC(=O)[C@H](C)NC)C3)c2)CC[C@H]2CCC(C(=O)NC(c3ccccc3)c3ccccc3)N2C1=O (stereo partly drawn) [compound 1 disulfate amorphous form XXIII] | 2.45% | Amorphous | 2.72% | Amorphous | 4.83% | Amorphous | 2.69% | Amorphous | 3.14% | Amorphous | 5.13% | Amorphous | 3.66% | Amorphous | 5.50% | Amorphous | 1.96% | Amorphous | – |
